{Gem} = gemcitabine nucleotide residue

In general, IC50 refers to the midpoint of a concentration-inhibition curve.

The nature of data set [1]: In vitro stability: dFdC and dFdU in plasma by LC-MS/MS. The settings on record: rat plasma. Type of data set: in vitro ADME. The method, then:
From the chromatogram obtained by the established LC-MS/MS assay method, peak area ratios of dFdC, dFdU and dFdCTP to a peak area of the internal standard substance were estimated, followed by calculating a concentration in the mouse plasma and a concentration in tissues from a previously created calibration curve.
1 mL of mouse blood was collected and placed in a 1.5 mL Eppendorf tube containing 10 μL of 10 mg/mL (in DW) tetrahydrouridine (THU). After centrifugation under conditions of 14,000 rpm and 4° C. for 2 minutes using a centrifuge, only plasma was taken and transferred to another vial and stored at −80° C. After transferring 50 μL of plasma to a 1.5 mL amber Eppendorf tube, 150 μL of an internal standard substance (meltform 1.29 μg/mL in ACN) was added and vortexed for 10 minutes. Centrifugation was conducted using a centrifuge under conditions of 14,000 rpm and 4° C. for 20 minutes. In the centrifuged tube, 150 μL of sample was transferred to another 1.5 mL amber Eppendorf tube. An organic solvent was dried using a GeneVac EZ-2 automated evaporation system (GeneVac Ltd., Ipswich, UK). (GeneVac HPLC mode, max temperature 35° C., 1 hr). The organic solvent was reconstituted by adding 125 μL DW to a 1.5 mL dried amber Eppendorf tube. After vortexing for 5 minutes, centrifugation was conducted using a centrifuge under conditions of 14,000 rpm and 4° C. for 5 minutes. The supernatant of the centrifuged solution was added in an amount of 100 μL to each vial for LC-MS/MS using a PTFE (hydrophilic) 0.2 μm syringe filter (Toyo Toshi, Japan). Specifically, 5 μL of the supernatant was injected into each LC-MS/MS.
Chromatography was performed using an Agilent 1200 series separation module (Agilent Technologies, Waldbronn, Germany). […] An injection volume was 5 μL, a mobile phase was a gradient eluent system [A: 100% ACN, B: 0.1% formic acid in DW], and a total running time was 20 minutes. A calibration range was set to be 20 to 5,000 ng/mL.
Each sample was treated according to the above 2-1-1 and 2-1-2, and a ratio of dFdC/dFdU in rat plasma was measured in regard to the compound types of (Gem)x-[TGG]m[TTG][TGG]n.

Data set [2] deals with BxPC3 (pancreatic cancer). Briefly: Cell proliferation inhibition (MTT), BxPC3. Type of data set: cell-based. The settings on record: MTT assay, 3 days. For orientation: Tetrazolium dyes change colour on reduction, which living cells bring about.
Procedure: (§1) 2.5 to 5.0×10^5 cells/well, which is the cell number defined by cell test to determine the appropriate cell concentration in the pancreatic cancer cell line B x PC3 cell (ATCC, IMDM+10% PBS), were seeded in a 96 well plate and incubated for one day. […] The treated BxPC3 cells were incubated in a 5% CO2 incubator for 3 days, treated with 20 μL of reagent solution for MTT assay (Cell Proliferation KitII, Roche), and then incubated hourly (10 minutes, 30 minutes, 60 minutes), followed by measuring absorbance at 490 nm by a reader through ELISA (See FIGS. 28 and 29).
(§2) Cell proliferation inhibitory efficacy against other cell lines MD-MBA 231 (breast cancer), Uuh-7 (liver cancer), HT29 (colon cancer) and Mv4-11 (AML) was also verified in the same manner as described above.
The subject of data set [3] is BxPC3, PANC-1, Miapaca-2, and Capan-1. Briefly: Cell survival (WST-1) of pancreatic cancer cell lines. The settings on record: WST-1, 48 hours, 100 nM to 100 μM, all four pancreatic cancer cell lines. Type of data set: cell-based. The method, then: BxPC3, PANC-1, Miapaca-2, and Capan-1 were cultured as pancreatic cancer cell lines, respectively. When the cells were stable after several subcultures, 1×10^3 cells were seeded in 96 well plates to verify drug effects. On the next day, IO101, IO100, IO100-Con, IO101-Con and Gem at the highest concentration of 100 μM were diluted by 1/10 per each well, and prepared at a concentration of 4 points up to 100 nM. Then, the cells seeding in the 96 well plates were treated using the above prepared variants. After 48 hours, 10 μl of WST-1 solution was added to the wells and incubated in a 37° C. incubator for 1 hour. Subsequently, each sample was measured at 440 nm in a micro plate reader (VERSA Max). After calculation of the measured values, a cell survival rate graph for each treatment concentration was drawn up.

Data set [4] concerns MD-MBA 231 (breast cancer). Briefly: Cell proliferation inhibition (MTT), MD-MB231. It is filed as cell-based. The settings on record: MTT assay, 3 days.
Procedure: as §1, §2
Another data set can be described thus: in vivo. The following applies: rat, iv. The method, then: Sprague-Dawley male rats were subjected to induced anesthesia with isoflurane, which is an inhalation anesthetic, then a polyethylene (PE) tube (Clay Adams, Becton Dickinson, NJ, USA) was inserted into a carotid artery (for blood collection) and sutured with a suture, followed by fixing an end of the suture behind the neck. During surgery, anesthesia was maintained using ether and about 0.5 mL of physiological saline containing heparin (20 units/mL) was injected to prevent blood from clotting in a cannula. After the surgery is finished, the rats were placed in metabolic cages and allowed to recover completely from the anesthetic condition (4 to 5 hours), respectively. […] 1 and 2 ml/kg of drugs were administered intravenously. […] 5. 15. 30, 45, 60, 120, 360 and 720 minutes after the administration, 0.3 mL of blood was each collected through a […]. […] Then, the blood in the Eppendorf tube was immediately centrifuged, followed by storing the plasma.
All analytical procedures were implemented under conditions of shielding the tube. That is, all procedures were performed under quantification condition: SRM (selected reaction monitoring) mode (see Table 5 above), fixed phase condition: Hypersil gold C18, 1.9 μm, 100×2.1 mm^2 (Thermo Scientific, Matriks, Oslo, Norway), and mobile phase condition: distilled water (A) containing 0.1% formic acid and acetonitrile (B) (see Table 6 above).
Metformin as an internal standard substance (IS) was dissolved in acetonitrile to prepare another working solution of 645 ng/mL.
150 μL of the internal standard, that is, metformin was added to 50 μL of plasma (645 ng/mL in acetonitrile) and vortexed for 10 minutes, followed by performing centrifugation at 15,000 rpm and […] for 20 minutes. Thereafter, 150 μL of the supernatant was taken and transferred to another Eppendorf tube, and then the organic solvent was dried under a nitrogen stream. Then, 125 μL of tertiary distilled water was added to the dried Eppendorf tube, allowed to be redissolved. Then, the solution was vortexed for 5 minutes, centrifuged at 15,000 rpm and […] for 5 minutes. Thereafter, 100 μL of the supernatant was transferred to the vial for LC-MS/MS, 5 μL of the supernatant was injected and analyzed by LC-MS/MS.
Values of an area under the plasma concentration-time curve (AUCt) were calculated using a log-linear trapezoidal equation from the plasma concentration-time curves after the administration of drug to the final quantification time (specifically, the linear-trapezoidal equation is used in a section where the plasma concentration is increased, while in another section where plasma concentration is decreased, the trapezoidal equation is used by log transforming the concentration value). After oral administration, the highest plasma concentration (Cmax) and the time to reach the highest plasma concentration (Tmax) were determined from the plasma concentration-time curve. Values of the area (AUCinf) under the plasma concentration till infinite time-time curve were determined using the following equation. A terminal elimination rate constant (γZ) and half-life (t1/2) were determined from a slope of elimination of the plasma concentration. AUinf=AUCt+Ct/γZ(Ct: final quantification concentration, γZ: terminal elimination rate constant)

For the substance (Gem)2-[TGG]1[TTG][TGG]1 [compound 1], the dFdC/dFdU ratio in data set [1] is recorded as 1.76. For (Gem)2-[TGG]1[TTG][TGG]2 [compound 2], the dFdC/dFdU ratio in data set [1] is listed as 2.01. Still for that read-out and setting: the result for (Gem)2-[TGG]2[TTG][TGG]1 [compound 3] reads 2.20. Turning to (Gem)2-[TGG]2[TTG][TGG]2 [compound 4], the dFdC/dFdU ratio in data set [1] was 2.61. With (Gem)2-[TGG]2[TTG][TGG]3 [compound 5], the dFdC/dFdU ratio in data set [1] amounted to 2.79.

As for (Gem)2-[TGG]3[TTG][TGG]2 [compound 6], the dFdC/dFdU ratio in data set [1] is recorded as 2.84. Still for that read-out and setting: the result for (Gem)2-[TGG]3[TTG][TGG]3 [compound 7] reads 3.29; that for (Gem)2-[TGG]3[TTG][TGG]4 [compound 8], 3.80; that for (Gem)2-[TGG]4[TTG][TGG]3 [compound 9], 6.04. Regarding “(Gem)2-[TGG]4[TTG][TGG]4 (DNA TGGTGGTGGTGGTTGTGGTGGTGGTGG; two 5' gemcitabine residues, chemistry not fully specified) [compound 10, gemcitabine-containing oligonucleotide variant]”, the IC50 in data set [2] stood at 0.0089 µM; in data set [4] it was 0.018 µM. Moreover, in data set [3], the “pancreatic cancer cell growth inhibition (cell survival rate)” value is on record as “effectively inhibits pancreatic cancer cell growth in proportion to a drug concentration”. For the same substance, in data set [1], the dFdC/dFdU ratio was determined as 12.00. “(Gem)2-[TGG]4[TTG][TGG]5 (DNA TGGTGGTGGTGGTTGTGGTGGTGGTGGTGG; DNA, 5' {Gem}-{Gem}, backbone not given here) [compound 11, gemcitabine-containing oligonucleotide variant]”: the half-maximal inhibitory concentration (IC50) turned out to be 0.0085 µM in data set [2] and 0.015 µM in data set [4]. Moreover, the “pancreatic cancer cell growth inhibition (cell survival rate)” value in data set [3] was “pancreatic cancer cell growth was effectively inhibited”. For the same substance, in data set [1], the dFdC/dFdU ratio turned out to be 14.10. Besides, the “dFdU Tmax” value in the data set “in vivo” stood at 6 h.

With (Gem)2-[TGG]5[TTG][TGG]4 [compound 12], the dFdC/dFdU ratio in data set [1] came to 13.63. On to (Gem)2-[TGG]5[TTG][TGG]5 [compound 13], for which the dFdC/dFdU ratio in data set [1] amounted to 11.85. As to (Gem)2-[TGG]5[TTG][TGG]6 [compound 14], the dFdC/dFdU ratio in data set [1] is reported as 11.59.

(Gem)2-[TGG]6[TTG][TGG]5 [compound 15]: in data set [1], the dFdC/dFdU ratio is recorded as 13.67. Same read-out and setting: the value for (Gem)2-[TGG]6[TTG][TGG]6 [compound 16] was 13.59.
